Experimental data: patent US20030147850A1 (priority 2002, published 2003)

What was measured:
[1] = test system: vesicular stomatitis virus (VSV)
P388 tumor cells = test system: P388 tumor cells; design: species or system DBA/BALB(F1) male mice; conditions: mouse, in vivo, ip, 5 mg/kg
[2] = test system: erythroleukemia tumor cells; design: species or system C57BL male mice; conditions: mouse, in vivo

| Substance | protection of cells against virus-induced cytopathology [1] | Tumor mass (P388 tumor cells) | Tumor mass [2] |
| --- | --- | --- | --- |
| Disodium succinate hexahydrate | no effect | – | – |
| Recombinant human interferon-alpha2b [IFN] | – | 4800 ± 500 mg | 354 ± 16 mg |
